The record followed here is patent US12398178B2, “Collections of peptides, peptide agents, and methods of use thereof” (Parabilis Medicines, Inc., priority 2018, dated 2025).

Starred links: 1 amine or outer side, 2 acyl side, 3 side chain; linkers in the order of their positions; H or OH if unused. Positions of bridges follow the written chain, without caps; N, C: chain ends. Residues, ends and D or L forms follow the SMILES beside them. Phenylene(1,4-NHCOCH2)2 = O=C(C[*:1])Nc1ccc(NC(=O)C[*:2])cc1; X9 = O=C(C[*:1])O[C@@H]1CCC[C@H](OC(=O)C[*:2])C1; X7 = O=C(C[*:1])Nc1cc(F)c(NC(=O)C[*:2])cc1F

The data set is described as follows: Measurement of LogD (CHI logD by HPLC). Type of data set: physicochemical. Conditions: CHI log D, 50 mM ammonium acetate pH 7.4 / acetonitrile gradient, C-18 column, 25° C. Here is the method: Measurement of LogD: LogD values were measured on a Agilent 1260 HPLC with UV detector (254, 220 nm), using a Gemini NX C-18 50×3 mm column (Phenomenex) with a 6-minute 0-100% mobile phase gradient of A) 50 mM ammonium acetate pH 7.4 and B) Acetonitrile at 25° C. with a flow rate of 1 mL/min and injection volume of 3-5 uL.

Broadly, the chromatographic logD is a lipophilicity value derived from retention on a column. The low end stands for lower lipophilicity, the high end for higher lipophilicity. Regarding `CC[C@H](C)[C@@H]1NC(=O)[C@H](CC(C)C)NC(=O)[C@H](C)NC(=O)[C@H](C)NC(=O)[C@H](Cc2c[nH]cn2)NC(=O)[C@H](CCC(=O)O)NC(=O)[C@@H](NC(=O)[C@H](C)NC(=O)[C@H](Cc2c[nH]c3ccccc23)NC(=O)[C@H](CC(C)C)NC(=O)[C@H](C)NC(=O)[C@@H]2CCCN2C(=O)[C@H](CC(=O)O)NC(=O)[C@H](C)N)CSCC(=O)Nc2cc(F)c(cc2F)NC(=O)CSC[C@@H](C(=O)N[C@@H](CCC(=O)O)C(=O)N[C@H](C(=O)N[C@@H](CCC(N)=O)C(N)=O)[C@@H](C)O)NC1=O` [Compound 41] (H-ADPALWACEHAALICETQ-NH2; linker 8-15 via X7; N-terminus and C-terminus assumed), the chromatographic logD turned out to be 0.73.

With `CC[C@H](C)[C@@H]1NC(=O)[C@H](CC(C)C)NC(=O)[C@H](C)NC(=O)[C@H](C)NC(=O)[C@H](Cc2c[nH]cn2)NC(=O)[C@H](CCC(=O)O)NC(=O)[C@@H](NC(=O)[C@H](C)NC(=O)[C@H](Cc2c[nH]c3ccccc23)NC(=O)[C@H](CC(C)C)NC(=O)[C@H](C)NC(=O)[C@@H]2CCCN2C(=O)[C@H](CC(=O)O)NC(=O)[C@H](C)N)CSCC(=O)O[C@@H]2CCC[C@@H](C2)OC(=O)CSC[C@@H](C(=O)N[C@@H](CCC(=O)O)C(=O)N[C@H](C(=O)N[C@@H](CCC(N)=O)C(N)=O)[C@@H](C)O)NC1=O` [Compound 46] (H-ADPALWACEHAALICETQ-NH2; linker 8-15 via X9; N-terminus and C-terminus assumed), the chromatographic logD was 0.94. `CC(C)C[C@@H]1NC(=O)[C@H](C)NC(=O)[C@H](C)NC(=O)[C@H](Cc2c[nH]cn2)NC(=O)[C@H](CCC(=O)O)NC(=O)[C@@H](NC(=O)[C@H](CCC(N)=O)NC(=O)[C@H](Cc2c[nH]c3ccccc23)NC(=O)[C@@H]2CCCN2C(=O)[C@H](C)NC(=O)[C@@H]2CCCN2C(=O)[C@H](CC(=O)O)NC(=O)[C@H](C)N)CSCC(=O)Nc2ccc(cc2)NC(=O)CSC[C@@H](C(=O)N[C@@H](CCC(=O)O)C(=O)N[C@@H](CC(C)C)C(=O)N[C@@H](CCC(=O)O)C(N)=O)NC(=O)[C@H](CC(C)C)NC1=O` [Compound 11] (H-ADPAPWQCEHAALLCELE-NH2; linker 8-15 via Phenylene(1,4-NHCOCH2)2; N-terminus and C-terminus assumed) showed a chromatographic logD of 0.47. The value for `CC[C@H](C)[C@@H]1NC(=O)[C@@H](NC(=O)[C@H](CC(=O)O)NC(=O)[C@H](CCC(=O)O)NC(=O)[C@H](CC(=O)O)NC(=O)[C@H](C)NC(=O)[C@@H]2CCCN2C(=O)[C@H](CC(=O)O)NC(=O)[C@H](C)N)CSCC(=O)Nc2ccc(cc2)NC(=O)CSC[C@@H](C(=O)N[C@@H](CCC(N)=O)C(=O)N[C@@H](Cc2c[nH]c3ccccc23)C(=O)N[C@@H](CC(=O)O)C(N)=O)NC(=O)[C@H]([C@@H](C)CC)NC(=O)[C@H](Cc2c[nH]cn2)NC(=O)[C@H](C)NC(=O)[C@H](C)NC(=O)[C@H](CC(C)C)NC1=O` [Compound 9] (H-ADPADEDCILAAHICQWD-NH2; linker 8-15 via Phenylene(1,4-NHCOCH2)2; N-terminus and C-terminus assumed) was 0.29; that for `CC[C@H](C)[C@@H]1NC(=O)[C@H](CC(C)C)NC(=O)[C@H](C)NC(=O)[C@H](C)NC(=O)[C@H](Cc2c[nH]cn2)NC(=O)[C@H](CCC(=O)O)NC(=O)[C@@H](NC(=O)[C@H](C)NC(=O)[C@H](Cc2c[nH]c3ccccc23)NC(=O)[C@H](CC(C)C)NC(=O)[C@H](C)NC(=O)[C@@H]2CCCN2C(=O)[C@H](CC(=O)O)NC(=O)[C@H](C)N)CSCC(=O)Nc2ccc(cc2)NC(=O)CSC[C@@H](C(=O)N[C@@H](CCC(=O)O)C(=O)N[C@H](C(=O)N[C@@H](CCC(N)=O)C(N)=O)[C@@H](C)O)NC1=O` [Compound 2] (H-ADPALWACEHAALICETQ-NH2; linker 8-15 via Phenylene(1,4-NHCOCH2)2; N-terminus and C-terminus assumed) was 0.62.
